Reference: patent US20240173419A1, “CDK2 DEGRADERS AND USES THEREOF” (Kymera Therapeutics, Inc., priority 2022, published 2024)

Biological target: T1, CDK2 (Homo sapiens, UniProt P24941)
T1 construct: endogenous in cells; host or cells: MKN1 cells
Experiment: CDK2 degradation in MKN1 cells (AlphaLISA)
Format: cell-based
Conditions: 14 h incubation; for DC50: read-out: CDK2 degradation 14 h: Mean external-Abs DC50
Procedure, shortened: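 MKN1 cells (2e4/well) treated 14 h at 37° C with 11-point 1:5 dilutions (0.001 nM-10 μM, 0.1% DMSO). CDK2 in lysates quantified by AlphaLISA, no-cell background subtracted; DC50 from four-parameter logistic fit.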

| Structure (SMILES) | CDK2 degradation 14 h: Average Dmax % | DC50 |
| --- | --- | --- |
| Cc1cc(S(=O)(=O)NC2CC(N3CCN(CC4CCN(c5ccc6c(c5F)n(C)c(=O)n6C5CCC(=O)NC5=O)CC4)CC3)C2)ccc1Nc1ncc2cc(Cl)c(=O)n(C3CCCC3)c2n1 (centres unmarked) [I-832] | A (A (>75% o)) | < 100 nM |
| Cc1cc(S(=O)(=O)NC2CC(N3CCN(CC4CCN(c5cccc6c5n(C)c(=O)n6C5CCC(=O)NC5=O)CC4)CC3)C2)ccc1Nc1ncc(C(F)(F)F)c(N2CCCC(C)(O)C2)n1 (centres unmarked) [I-834] | A (A (>75% o)) | < 100 nM |
| Cc1cc(S(=O)(=O)C2CC3(CCN(CC4CCN(c5ccc6c(c5F)n(C)c(=O)n6C5CCC(=O)NC5=O)CC4)CC3)C2)ccc1Nc1nc(N2CCCC(C)(O)C2)c2c(ccn2C)n1 (centres unmarked) [I-835] | D (D (<25%)) | > 1000 nM |
| Cc1cc(S(=O)(=O)N2CC3(CCN(CC4CCN(c5ccc6c(c5F)n(C)c(=O)n6C5CCC(=O)NC5=O)CC4)CC3(F)F)C2)ccc1Nc1ncc2ccc(=O)n(C3CCCC3)c2n1 (centres unmarked) [I-836] | B (B (>50% -75%)) | 100 to 500 nM |
| Cc1cc(S(=O)(=O)C2CC3(CCN(CC4CCN(c5ccc6c(c5F)n(C)c(=O)n6C5CCC(=O)NC5=O)CC4)CC3)C2)ccc1Nc1ncc2cc(Cl)c(=O)n(C(C)C(C)(C)O)c2n1 (centres unmarked) [I-837] | D (D (<25%)) | > 1000 nM |
| Cc1cc(S(=O)(=O)C2CC3(CCN(CC4CCN(c5cccc6c5n(C)c(=O)n6C5CCC(=O)NC5=O)CC4)CC3)C2)ccc1Nc1ncc2cc(Cl)c(=O)n(C(C)C(C)(C)O)c2n1 (centres unmarked) [I-838] | D (D (<25%)) | > 1000 nM |
| Cc1cc(S(=O)(=O)C2CC3(CCN(CC4CCN(c5ccc6c(c5F)n(C)c(=O)n6C5CCC(=O)NC5=O)CC4)CC3)C2)ccc1Nc1ncc(C2CC2)c(N2CCCC(C)(O)C2)n1 (centres unmarked) [I-839] | D (D (<25%)) | > 1000 nM |
| Cc1cc(S(=O)(=O)C2CC3(CCN(CC4CCN(c5ccc6c(c5F)n(C)c(=O)n6C5CCC(=O)NC5=O)CC4)CC3)C2)ccc1Nc1ncc(C(F)(F)F)c(N2CCC(C(C)(C)O)C2)n1 (centres unmarked) [I-840] | B (B (>50% -75%)) | < 100 nM |
| Cc1cc(S(=O)(=O)C2CC3(CCN(CC4CCN(c5cccc6c5n(C)c(=O)n6C5CCC(=O)NC5=O)CC4)CC3)C2)ccc1Nc1ncc(C(F)(F)F)c(N2CCC(C(C)(C)O)C2)n1 (centres unmarked) [I-841] | A (A (>75% o)) | < 100 nM |
| Cc1cc(S(=O)(=O)C2CC3(CCN(CC4CCN(c5cccc6c5n(C)c(=O)n6C5CCC(=O)NC5=O)CC4)CC3)C2)ccc1Nc1ncc(C(F)(F)F)c(N2CCC(C(C)(C)O)C2)n1 (centres unmarked) [I-842] | A (A (>75% o)) | < 100 nM |
| Cc1cc(S(=O)(=O)NC(C)COC2CCC(CN3CCN(c4ccc5c(c4F)n(C)c(=O)n5C4CCC(=O)NC4=O)CC3)CC2)ccc1Nc1ncc2cc(Cl)c(=O)n(C(C)C(C)(C)O)c2n1 (centres unmarked) [I-843] | D (D (<25%)) | > 1000 nM |
| Cc1cc(S(=O)(=O)NC(C)COC2CCC(CN3CCN(c4ccc5c(c4F)n(C)c(=O)n5C4CCC(=O)NC4=O)CC3)CC2)ccc1Nc1ncc(C(F)(F)F)c(N2CCCC(C)(O)C2)n1 (centres unmarked) [I-844] | A (A (>75% o)) | < 100 nM |
| Cc1cc(S(=O)(=O)NC(C)COC2CCC(CN3CCN(c4ccc5c(c4F)n(C)c(=O)n5C4CCC(=O)NC4=O)CC3)CC2)ccc1Nc1ncc(C(F)(F)F)c(C2CCC(C)(O)CC2)n1 (centres unmarked) [I-845] | B (B (>50% -75%)) | 100 to 500 nM |
| Cc1cc(S(=O)(=O)NC(C)COC2CCC(CN3CCN(c4ccc5c(c4F)n(C)c(=O)n5C4CCC(=O)NC4=O)CC3)CC2)ccc1Nc1ncc(C(F)(F)F)c(N2CCCC(C)(O)C2)n1 (centres unmarked) [I-846] | A (A (>75% o)) | < 100 nM |
| Cc1cc(S(=O)(=O)NC2CC(N3CCN(CC4CN(c5cccc6c5n(C)c(=O)n6C5CCC(=O)NC5=O)C4)CC3)C2)ccc1Nc1ncc(C(F)(F)F)c(C2CCC(C)(O)CC2)n1 (centres unmarked) [I-847] | A (A (>75% o)) | < 100 nM |
| Cc1cc(S(=O)(=O)NC(C)COC2CCC(CN3CC(c4ccc5c(c4F)n(C)c(=O)n5C4CCC(=O)NC4=O)C3)CC2)ccc1Nc1ncc(C(F)(F)F)c(N2CCCC(C)(O)C2)n1 (centres unmarked) [I-848] | A (A (>75% o)) | < 100 nM |
| Cc1cc(S(=O)(=O)C2CC3(CCN(CC4CCN(c5ccc6c(c5F)n(C)c(=O)n6C5CCC(=O)NC5=O)CC4)CC3)C2)ccc1Nc1ncc(C(F)(F)F)c(N2CCC(C)C(C)(O)C2)n1 (centres unmarked) [I-849] | B (B (>50% -75%)) | < 100 nM |
| Cc1cc(S(=O)(=O)NC(C)COC2CCC(CN3CC(c4cccc5c4n(C)c(=O)n5C4CCC(=O)NC4=O)C3)CC2)ccc1Nc1ncc(C(F)(F)F)c(N2CCCC(C)(O)C2)n1 (centres unmarked) [I-850] | B (B (>50% -75%)) | < 100 nM |
| Cc1cc(S(=O)(=O)NC(C)COC2CCC(CN3CCN(c4cccc5c4n(C)c(=O)n5C4CCC(=O)NC4=O)CC3)CC2)ccc1Nc1ncc(C(F)(F)F)c(N2CCCC(C)(O)C2)n1 (centres unmarked) [I-851] | A (A (>75% o)) | < 100 nM |
